Key:
Experiment in all cases: relative viability (nuclei count vs DMSO), 5 days (fraction); higher = more cells survive
CAL-12T = tested on: CAL-12T
Procedure, shortened: (§1)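 Lung cancer cell lines in 1536-well plates got either a single drug or a fixed anchor-drug dose together with five library-drug doses (not always all listed) in √10 steps, by pin tool, on the day after seeding. Nuclei were counted after 5 days, and relative viability is the treated-to-vehicle ratio of nuclei counts. Values are medians of duplicate plates.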

NCI-H1666 = tested on: NCI-H1666
Procedure, shortened: as §1

NCI-H1975 = tested on: NCI-H1975
Procedure, shortened: as §1

NCI-H1755 = tested on: NCI-H1755
Procedure, shortened: as §1

NCI-H441 = tested on: NCI-H441
Procedure, shortened: as §1

ChaGo-K-1 = tested on: ChaGo-K-1
Procedure, shortened: as §1

HCC-15 = tested on: HCC-15
Procedure, shortened: as §1

COR-L 105 = tested on: COR-L 105
Procedure, shortened: as §1

NCI-H2085 = tested on: NCI-H2085
Procedure, shortened: as §1

NCI-H358 = tested on: NCI-H358
Procedure, shortened: as §1

NCI-H2126 = tested on: NCI-H2126
Procedure, shortened: as §1

NCI-H3122 = tested on: NCI-H3122
Procedure, shortened: as §1

NCI-H322M = tested on: NCI-H322M
Procedure, shortened: as §1

HCC-78 = tested on: HCC-78
Procedure, shortened: as §1

NCI-H1993 = tested on: NCI-H1993
Procedure, shortened: as §1

EPLC-272H = tested on: EPLC-272H
Procedure, shortened: as §1

HOP-62 = tested on: HOP-62
Procedure, shortened: as §1

LXF-289 = tested on: LXF-289
Procedure, shortened: as §1

NCI-H1915 = tested on: NCI-H1915
Procedure, shortened: as §1

UMC-11 = tested on: UMC-11
Procedure, shortened: as §1

EMC-BAC-2 = tested on: EMC-BAC-2
Procedure, shortened: as §1

NCI-H2023 = tested on: NCI-H2023
Procedure, shortened: as §1

**Q.** What does the source list for O=C(O)c1ccc(-c2c[nH]c3ncc(-c4ccccc4)cc23)cc1C1CCCC1 + Nc1nc2[nH]cc(CCc3ccc(C(=O)N[C@@H](CCC(=O)O)C(=O)O)cc3)c2c(=O)[nH]1 [Pemetrexed] (partner 0.2 µM)?
**A.** relative viability (CAL-12T; first compound 0.04 µM): 1.15; relative viability (CAL-12T; first compound 0.1265 µM): 1.04; relative viability (CAL-12T; first compound 0.4 µM): 1.1; relative viability (CAL-12T; first compound 1.265 µM): 1.09; relative viability (NCI-H1666; first compound 0.04 µM): 0.753; relative viability (NCI-H1666; first compound 0.1265 µM): 0.917; relative viability (NCI-H1666; first compound 0.4 µM): 0.879; relative viability (NCI-H1666; first compound 1.265 µM): 0.809; relative viability (NCI-H1975; first compound 0.04 µM): 0.301; relative viability (NCI-H1975; first compound 0.1265 µM): 0.298; relative viability (NCI-H1975; first compound 0.4 µM): 0.284; relative viability (NCI-H1975; first compound 1.265 µM): 0.28; relative viability (NCI-H1755; first compound 0.04 µM): 0.412; relative viability (NCI-H1755; first compound 0.1265 µM): 0.449; relative viability (NCI-H1755; first compound 0.4 µM): 0.405; relative viability (NCI-H1755; first compound 1.265 µM): 0.436; relative viability (NCI-H441; first compound 0.04 µM): 0.33; relative viability (NCI-H441; first compound 0.1265 µM): 0.285; relative viability (NCI-H441; first compound 0.4 µM): 0.256; relative viability (NCI-H441; first compound 1.265 µM): 0.235; relative viability (ChaGo-K-1; first compound 0.04 µM): 0.249; relative viability (ChaGo-K-1; first compound 0.1265 µM): 0.255; relative viability (ChaGo-K-1; first compound 0.4 µM): 0.265; relative viability (ChaGo-K-1; first compound 1.265 µM): 0.264; relative viability (HCC-15; first compound 0.04 µM): 0.206; relative viability (HCC-15; first compound 0.1265 µM): 0.227; relative viability (HCC-15; first compound 0.4 µM): 0.215; relative viability (HCC-15; first compound 1.265 µM): 0.188; relative viability (COR-L 105; first compound 0.04 µM): 1.06; relative viability (COR-L 105; first compound 0.1265 µM): 1.19; relative viability (COR-L 105; first compound 0.4 µM): 1.19; relative viability (COR-L 105; first compound 1.265 µM): 1.08; relative viability (NCI-H2085; first compound 0.04 µM): 0.821; relative viability (NCI-H2085; first compound 0.1265 µM): 0.951; relative viability (NCI-H2085; first compound 0.4 µM): 0.882; relative viability (NCI-H2085; first compound 1.265 µM): 0.654; relative viability (NCI-H358; first compound 0.04 µM): 0.17; relative viability (NCI-H358; first compound 0.1265 µM): 0.186; relative viability (NCI-H358; first compound 0.4 µM): 0.181; relative viability (NCI-H358; first compound 1.265 µM): 0.148; relative viability (NCI-H2126; first compound 0.04 µM): 0.741; relative viability (NCI-H2126; first compound 0.1265 µM): 0.66; relative viability (NCI-H2126; first compound 0.4 µM): 0.707; relative viability (NCI-H2126; first compound 1.265 µM): 0.666; relative viability (NCI-H3122; first compound 0.04 µM): 0.204; relative viability (NCI-H3122; first compound 0.1265 µM): 0.202; relative viability (NCI-H3122; first compound 0.4 µM): 0.217; relative viability (NCI-H3122; first compound 1.265 µM): 0.21; relative viability (NCI-H322M; first compound 0.04 µM): 0.632; relative viability (NCI-H322M; first compound 0.1265 µM): 0.586; relative viability (NCI-H322M; first compound 0.4 µM): 0.589; relative viability (NCI-H322M; first compound 1.265 µM): 0.547; relative viability (HCC-78; first compound 0.1265 µM): 0.919; relative viability (HCC-78; first compound 0.4 µM): 0.881; relative viability (HCC-78; first compound 1.265 µM): 0.962; relative viability (NCI-H1993; first compound 0.04 µM): 0.603; relative viability (NCI-H1993; first compound 0.1265 µM): 0.622; relative viability (NCI-H1993; first compound 0.4 µM): 0.617; relative viability (NCI-H1993; first compound 1.265 µM): 0.59; relative viability (EPLC-272H; first compound 0.04 µM): 0.369; relative viability (EPLC-272H; first compound 0.1265 µM): 0.336; relative viability (EPLC-272H; first compound 0.4 µM): 0.279; relative viability (EPLC-272H; first compound 1.265 µM): 0.251; relative viability (HOP-62; first compound 0.04 µM): 0.327; relative viability (HOP-62; first compound 0.1265 µM): 0.389; relative viability (HOP-62; first compound 0.4 µM): 0.307; relative viability (HOP-62; first compound 1.265 µM): 0.351; relative viability (LXF-289; first compound 0.04 µM): 0.912; relative viability (LXF-289; first compound 0.1265 µM): 0.905; relative viability (LXF-289; first compound 0.4 µM): 0.786; relative viability (LXF-289; first compound 1.265 µM): 0.627; relative viability (NCI-H1915; first compound 0.04 µM): 0.493; relative viability (NCI-H1915; first compound 0.1265 µM): 0.454; relative viability (NCI-H1915; first compound 0.4 µM): 0.481; relative viability (NCI-H1915; first compound 1.265 µM): 0.448; relative viability (UMC-11; first compound 0.04 µM): 0.703; relative viability (UMC-11; first compound 0.1265 µM): 0.719; relative viability (UMC-11; first compound 0.4 µM): 0.693; relative viability (UMC-11; first compound 1.265 µM): 0.653; relative viability (EMC-BAC-2; first compound 0.04 µM): 0.451; relative viability (EMC-BAC-2; first compound 0.1265 µM): 0.465; relative viability (EMC-BAC-2; first compound 0.4 µM): 0.479; relative viability (EMC-BAC-2; first compound 1.265 µM): 0.451; relative viability (NCI-H2023; first compound 0.04 µM): 0.23; relative viability (NCI-H2023; first compound 0.1265 µM): 0.271; relative viability (NCI-H2023; first compound 0.4 µM): 0.28; relative viability (NCI-H2023; first compound 1.265 µM): 0.237

Reference: the supplement of paper PMC10307832
